Measurements: the METLIN SMRT retention time set (Domingo-Almenara et al. 2019)

Assay: gradient 5% acetonitrile 3 min, to 50% in 2 min, to 85% in 15 min, held 3 min, 100 µL/min
Conditions: column: Zorbax Extend-C18 2.1 x 50 mm; eluents: water / acetonitrile, 0.1% formic acid
How it was run: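 The system's dead and dwell volumes were 40 μL and 900 μL, with a Zorbax Extend-C18 column (2.1 × 50 mm, 1.8 μm) run at 100 μL/min in water and acetonitrile containing 0.1% formic acid each. Pure standards were analyzed in mixtures of ~100 molecules by HPLC–quadrupole time-of-flight mass spectrometry in positive and negative ionization mode. Retention time was assigned from computationally picked, manually inspected adduct peaks.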

| RP-LC retention time | Structure (SMILES) |
| --- | --- |
| 769 s | CN1C(=O)c2cc(C(=O)NCCc3ccccc3)nn2CC1(C)C(=O)NCc1ccccc1 (centres undefined) |
| 1110 s | Fc1ccc(C2Cn3nnc(-c4nc(-c5ccccc5F)no4)c3CO2)cc1 (centres undefined) |
| 762 s | Cc1cc(C(=O)Nc2ccc(CC(=O)NCc3cccs3)cc2)c(C)o1 |
| 690 s | Cc1ccc(-c2nc3ccccn3c2Nc2ccc3c(c2)OCCO3)cc1 |
| 854 s | CN1C(=O)c2cc(C(=O)NCCCc3ccccc3)nn2CC1(C)C(=O)NC1CCCCC1 (centres undefined) |
| 559 s | c1ccc(OCc2nc3ccccc3n2CC2CCN(Cc3ccccn3)CC2)cc1 |
| 1010 s | CC(Oc1cccc(Cl)c1)c1nc(-c2ccc3c(c2)nnn3CCC(=O)N2CCCC2)no1 (centres undefined) |
| 944 s | CCCc1noc(-c2ccnc(-n3cnc(C(=O)N4CCCC(C)C4)c3)c2)n1 (centres undefined) |
| 837 s | CCOC(=O)c1cccc(Nc2c(-c3ccc(N(C)C)cc3)nc3cnccn23)c1 |
| 807 s | COc1ccc(-c2c(C)noc2NC(C)=O)cc1S(=O)(=O)Nc1ccc(Cl)cc1F |
| 593 s | O=C(CSc1ccc(N2CCCC(C(=O)NC3CC3)C2)nn1)NCc1cccs1 (centres undefined) |
| 799 s | CCOC(=O)c1[nH]c(C)c(CCC(=O)N2CCC(C(=O)NCc3ccc(OC)cc3OC)CC2)c1C |
| 694 s | O=C(CN1C(=O)COc2ccc(C(=O)N3CCCC3)cc21)Nc1ccccc1F |
| 613 s | O=C(CCc1nnc2ccc(NCc3ccccc3Cl)nn12)N1CCN(c2ccccn2)CC1 |
| 928 s | CCOC(=O)Oc1ccc2c(=O)c(Oc3cccc(OC)c3)coc2c1 |
| 679 s | CCOc1ccc(CC(=O)NC2CCN(c3cc(-c4ccc(F)cc4)[nH]n3)C2)cc1OCC (centres undefined) |
| 767 s | CCN(CC)C(=O)c1cc2c(s1)CCC(C(=O)Nc1ccc(N3CCOCC3)cc1)C2 (centres undefined) |
| 602 s | CC(C)CN1CCN(C(=O)CN2CCN(Cc3ccc(F)cc3)C2=O)CC1 |
| 815 s | CCOC(=O)c1[nH]c(C)c(CCC(=O)N2CCC(C(=O)NCc3ccc(SC)cc3)CC2)c1C |
| 782 s | O=C(Cn1nc(C2CC2)cc1C(=O)N1CCCC1)NCc1cccc(Cl)c1 |

| RP-LC retention time | Structure (SMILES) |
| --- | --- |
| 614 s | CC(C)(C)C(=O)NCc1cccnc1-c1ccc(F)cc1 |
| 1010 s | CCOc1ccc(C(=O)N2CCCC2c2nc(-c3ccc(F)cc3F)no2)cc1 (centres undefined) |
| 692 s | Cc1ccc(-n2nc(N3CCCC(C(=O)NCc4ccc(N(C)C)cc4)C3)ccc2=O)cc1Cl (centres undefined) |
| 681 s | CCSc1nccc2c1ccn2CC(=O)NCc1ccc(Br)cc1 |
| 1310 s | CCCCc1ccc(NC(=O)CSc2cc(N3CCN(c4ccccc4OC)CC3)ncn2)cc1 |
| 663 s | COCCNC(=O)c1nnn(-c2ccc(F)cc2)c1-c1ccncc1 |
| 740 s | CCOC(=O)c1cn(CC(=O)Nc2cc(F)ccc2F)nn1 |
| 922 s | CCOc1ccc(C(=O)N2CCC3(CC2)N=C(c2ccc(Cl)cc2)NO3)cc1 |
| 1370 s | Cc1ccc(C(=O)Nc2nc(-c3ccc(C(C)(C)C)cc3)cs2)cc1 |
| 1140 s | Cc1ccc(C)c(N2CCN(c3ccnc(SCC(=O)Nc4ccc(Cl)cc4F)n3)CC2)c1 |
| 956 s | Cc1nc(C)c(C(=O)Nc2nc(-c3ccc(F)cc3)c(C)s2)s1 |
| 897 s | CCCCOc1ccc(-c2csc(NC(=O)c3cc4cccc(OC)c4oc3=O)n2)cc1 |
| 700 s | CCOC(=O)c1[nH]c(C)c(CCC(=O)N2CCC(C(=O)NCc3ccc(OC)c(OC)c3)CC2)c1C |
| 928 s | COc1ccc(OCc2nn3c(COc4ccc(F)cc4)nnc3s2)cc1 |
| 1450 s | CC(C)(C)c1cc(C(=O)Nc2cc(F)ccc2F)nc2ccnn12 |
| 811 s | O=C(Nc1c(F)cccc1F)N1CCc2nc(-c3ccccc3)ncc2C1 |
| 1160 s | CCCc1ccc(S(=O)(=O)N2CCc3c(c(-c4nnc(-c5ccc(C)cc5)o4)nn3C)C2)cc1 |
| 1090 s | Cc1nn2c(N3CCN(c4ccccn4)CC3)cc(C(C)(C)C)nc2c1-c1ccc(F)cc1 |
| 679 s | Cc1ccc(NC(=O)C2CCCN(c3cn[nH]c(=O)c3)C2)cc1 (centres undefined) |
| 631 s | CCCNc1cc(N2CCC(CCC(=O)NCc3ccc(N4CCOCC4)cc3)CC2)ncn1 |

Continued, molecule first:

| Structure (SMILES) | RP-LC retention time |
| --- | --- |
| CC(C)c1ccc(-n2c3c(cc(C(=O)N4CCOCC4)c2=O)C(=O)CCC3)cc1 | 722 s |
| O=C(NCCc1cnc[nH]1)c1ccc2nc(CCc3ccccc3)oc2c1 | 641 s |
| COc1ccc(C(=O)NCC(=O)Nc2nc3ccccc3[nH]2)cc1 | 606 s |
| Cc1nn(-c2ccc(-c3ccccc3)nn2)c(C)c1S(=O)(=O)N1CCN(C)CC1 | 644 s |
| COc1c(C(=O)NC2CCCC2)sc2cccc(F)c12 | 1100 s |
| Cc1noc(C)c1S(=O)(=O)N1CCCC(c2nc(CNC(=O)C(C)C)cs2)C1 (centres undefined) | 796 s |
| Cc1ccc(S(=O)(=O)C(F)(F)F)cc1N1C(=O)c2ccccc2C1=O | 942 s |
| C=CCn1c(=O)c2c(nc3n2CCN3c2ccc(OC)cc2)n(C)c1=O | 786 s |
| Cc1noc(C)c1C1CCCN1C(=O)c1ccnn1C (centres undefined) | 638 s |
| O=C(Cn1nc2c(cc1=O)CCCC2)Nc1nc(-c2ccncc2)cs1 | 606 s |
| c1ccc(-c2nc(CSc3ccc(-n4cccn4)nn3)cs2)cc1 | 1020 s |
| Cc1ccc(NC(=O)Cc2nnc(-c3cnccn3)o2)cc1 | 698 s |
| CC(C)n1c(CCNC(=O)c2ccccc2)nc2cccnc21 | 640 s |
| CC(C)CCN1C[C@@H]2C(=O)N(CCN3CCc4ccccc4C3)C(=O)[C@@H]2C1 | 561 s |
| O=C(CN1CCOCC1)N1CCCCC1c1nc(C2CC2)no1 (centres undefined) | 590 s |
| Cc1cc(Cl)ccc1S(=O)(=O)N1CCN(C2CCN(Cc3ccccn3)C2=O)CC1 (centres undefined) | 608 s |
| COc1ccc2c(c1)C1(CCN(C(=O)c3ccccc3Cl)C1)C(=O)N2 (centres undefined) | 708 s |
| CCCN1C(=O)NC2(CCN(C(=O)Nc3ccccc3C(F)(F)F)CC2)C1=O | 705 s |
| O=C(CN1CCN(Cc2ccc(F)cc2Cl)C1=O)N1CCN(C2CCCCC2)CC1 | 644 s |
| CCCNC(=O)c1cn(-c2cc(-c3nc(C)no3)ccn2)cn1 | 706 s |
| COCCOCC1CCN(S(=O)(=O)c2ccc(C(F)(F)F)cc2)CC1 | 937 s |
| Cc1cc(N2CCN(S(=O)(=O)c3ccc(F)c(F)c3)CC2)nc(N2CCCCC2)n1 | 775 s |
| CC(C)c1ccc(NC(=O)C2(C)CCCCC(=O)N2)cc1 (centres undefined) | 786 s |
| O=C(Nc1ccccc1)C1CCCN(c2ncnc3c2nc2n3CCCCC2)C1 (centres undefined) | 774 s |
| CCCS(=O)(=O)N1CCCc2ccc(NC(=O)NC3CCCCC3)cc21 | 882 s |

| Structure (SMILES) | RP-LC retention time |
| --- | --- |
| COc1cccc(-c2csc(Cc3nc(-c4cccc(Cl)c4)no3)n2)c1 | 1280 s |
| COc1ccc(NC(=O)N2CCCN(C3CCN(CC4CC4)C3=O)CC2)cc1Cl (centres undefined) | 569 s |
| Cc1ccc(Nc2ncccc2S(N)(=O)=O)cc1Cl | 924 s |
| c1ccc(-n2nnc(-c3noc(-c4ccco4)n3)c2-c2ccncc2)cc1 | 787 s |
| COC(=O)c1cccc(C(=O)Nc2ccc(F)cc2C)n1 | 853 s |
| CNC(=O)C1CCCN(c2nc3ncn(CC(=O)NC4CCCC4)c(=O)c3s2)C1 (centres undefined) | 605 s |
| Cn1nc(-c2nc(C3CC3)no2)c2c1CCN(C(=O)c1ccc(F)c(F)c1)C2 | 831 s |
| CC1CCN(C(=O)C2CCc3sc(C(=O)N4CCOCC4)cc3C2)CC1 (centres undefined) | 776 s |
| CS(=O)(=O)N1CCn2nc(-c3cccs3)cc21 | 681 s |
| Cc1ccc(-c2nc(-c3ccc(NS(=O)(=O)c4cccs4)cc3)no2)cc1F | 1180 s |
| CC(C)CN(Cc1cccnc1)C1CN(S(=O)(=O)Cc2ccccc2F)C1 | 734 s |
| COc1ccc2cc(-c3nc(-c4ccc(S(C)=O)cc4)[nH]c3-c3ccncc3)ccc2c1 (centres undefined) | 682 s |
| Cc1cc(S(=O)(=O)NCC2CCCO2)cc([N+](=O)[O-])c1C (centres undefined) | 778 s |
| Cc1ccc(NS(=O)(=O)c2c(C)sc(C)c2-c2cc(C(F)(F)F)on2)c(C)c1 | 1240 s |
| Cc1ccc(Nc2c(-c3ccc(Cl)cc3)nc3cnccn23)c(Br)c1 | 1170 s |
| CN1CCN(c2ncc3c(n2)CC(c2ccc(Cl)cc2)CC3=O)CC1 (centres undefined) | 674 s |
| COCC(=O)Nc1ccc2c(c1)Sc1ncccc1C(=O)N2C(C)C | 645 s |
| CC(C)c1nc(NCc2ccc(F)cc2F)ncc1C(=O)O | 875 s |
| CCCN1CCN(C(=O)Cc2ccc3nc(NC(C)=O)sc3c2)CC1 | 578 s |
| CC(C)NC(=O)N1CC=C(c2cn(C(C)C)c3ncccc23)CC1 | 632 s |
| CC(C)(C)c1csc(-c2csc(S(=O)(=O)NCc3ccc(F)c(Cl)c3)c2)n1 | 1280 s |
| Cc1nc(-c2ccccc2F)sc1C(=O)NC(C)C | 888 s |
| Cc1ccccc1NC(=O)Cn1c(=O)n(-c2ccccc2)c(=O)c2c1cc(C)n2C | 806 s |
| Cc1ccc(NC(=O)Nc2c(Cl)cccc2Cl)cn1 | 905 s |
